These are literature values, as cited in patent US20010046548A1, “Anticholesterolemic edible oil” (priority 1998, published 2001).

On to `CC[C@H](CC[C@@H](C)[C@H]1CC[C@H]2[C@@H]3CC=C4C[C@@H](O)CC[C@]4(C)[C@H]3CC[C@]12C)C(C)C` [beta-sitosterol], for which the fraction absorbed result (ingested, small intestine) was “less than 5%”. As for `CC[C@H](CC[C@@H](C)[C@H]1CC[C@H]2[C@@H]3CC[C@H]4C[C@@H](O)CC[C@]4(C)[C@H]3CC[C@]12C)C(C)C` [sitostanol], the absorption result (in vivo) is recorded as “completely unabsorbed”.
